Measurements published in US7968098B2, “HLA-A24-binding KIF-derived peptide” (Kurume University, priority 2006, dated 2011).
Read-outs that look alike come from different tables or passages of the source.

Tests used:
[1] = system: anti-peptide immunoglobulin G (IgG) in plasma; assay: Anti-peptide IgG in plasma measured by the Luminex system; type: binding, human; conditions: for Total (IgG-positive cases/total cases): positive = >1.25 times no peptide control; for Positive cases/total cases, Patients: Table 3, IgGs reactive to peptide in plasma of glioma patients; for Positive cases/total cases, Healthy donors: Table 3, IgGs reactive to peptide in plasma of healthy donors; for Positive cases/total cases, Total: Table 3, patients plus healthy donors
Experimental: The levels of anti-peptide immunoglobulin G (IgG) were measured by the Luminex™ system as previously reported (Komatsu N et al, Scand J Clin Invest 2004; 64: 1-11). In brief, plasma was incubated with 25 μl of peptide-coupled color-coded beads (Luminex Corp., Austin, Tex., USA) for 2 h at room temperature on a plate shaker. After incubation, the mixture was washed with a vacuum manifold apparatus and incubated with 100 μl of biotinylated goat anti-human IgG (BA-3080, Vector Laboratories, Burlingame, Calif., USA) for 1 h at room temperature. The plate was then washed, and 100 μl of streptavidin-PE (S-866, Molecular Probes, Eugene, Oreg., USA) was added to each well and was incubated for 30 min at room temperature on a plate shaker. The bound beads were washed three times followed by the addition of 100 μl of Tween-PBS to each well. Fifty μl of each sample was then examined using the Luminex™ system.
Next, the abilities of the KIF-derived peptides to be recognized by IgGs of glioma patients were examined, because IgGs reactive to CTL-directed peptides are detectable in the plasma of patients with different types of cancer (Nakatsura T et al, Eur J Immunol 32: 826-836, 2002), along with that levels of IgG well correlated with clinical responses of patients who received peptide vaccination as reported previously (Mine T et al, Clin Cancer Res 10: 929-937, 2004; Yajima N et al, Clin Cancer Res 11: 5900-5911, 2005). IgGs reactive to a corresponding peptide were judged to be significant when the immunofluorescence intensity in 1:100-diluted plasma exceeded 1.25 times that of the control samples with no peptides. […] Based on these findings, these 8 KIF peptides (3 for KIF1C, 3 for KIF3C, and 2 for KIF21B) were the focus of the following experiments.

[2] = system: PBMCs of HLA-A24+ glioma patients; type: cell-based, human; conditions: for IFN-γ: vs HIV peptide
[3] = Healthy donor 2, 1:100-diluted plasma
[4] = Healthy donor 3, 1:100-diluted plasma
[5] = Healthy donor 4, 1:100-diluted plasma
[6] = Healthy donor 5, 1:100-diluted plasma
[7] = glioma Patient 1, 1:100-diluted plasma
[8] = glioma Patient 2, 1:100-diluted plasma
[9] = glioma Patient 3, 1:100-diluted plasma
[10] = glioma Patient 4, 1:100-diluted plasma
[11] = glioma Patient 7, 1:100-diluted plasma
[12] = glioma Patient 8, 1:100-diluted plasma
[13] = glioma Patient 9, 1:100-diluted plasma
[14] = HLA-A24+ glioma patients, positive = P<0.05 and >100 pg/ml IFN-γ over HIV peptide
[15] = PBMCs of HLA-A24+ glioma Patient 1, 10 μg/ml peptide
[16] = PBMCs of HLA-A24+ glioma Patient 2, 10 μg/ml peptide
[17] = PBMCs of HLA-A24+ glioma Patient 4, 10 μg/ml peptide
[18] = PBMCs of HLA-A24+ glioma Patient 7, 10 μg/ml peptide
[19] = PBMCs of HLA-A24+ glioma Patient 8, 10 μg/ml peptide
[20] = PBMCs of HLA-A24+ glioma Patient 9, 10 μg/ml peptide
[21] = PBMCs of HLA-A24+ glioma Patient 10, 10 μg/ml peptide
[22] = Healthy donor 1, 1:100-diluted plasma
[23] = glioma Patient 5, 1:100-diluted plasma
[24] = Healthy donor 6, 1:100-diluted plasma
[25] = Healthy donor 7, 1:100-diluted plasma
[26] = Healthy donor 8, 1:100-diluted plasma
[27] = Healthy donor 9, 1:100-diluted plasma
[28] = glioma Patient 6, 1:100-diluted plasma
[29] = glioma Patient 10, 1:100-diluted plasma

Sequence | Immunofluoresence intensity [1, 3] | Immunofluoresence intensity [1, 5] | Immunofluoresence intensity [1, 6] | Total (IgG-positive cases/total cases) ([1]; Table 2, glioma patients) | Total (IgG-positive cases/total cases) ([1]; Table 2, healthy donors) | Positive cases/total cases, Patients [1] | Positive cases/total cases, Healthy donors [1] | Positive cases/total cases, Total [1] | Immunofluoresence intensity [1, 10] | Immunofluoresence intensity [1, 12] | Immunofluoresence intensity [1, 13] | further results
VYRDIGEEML (KIF1C 73-82 peptide) | 19.5 | 29.5 | 50.0 | 3/10 | 6/10 | 3/10 | 6/10 | 9/20 | 17.5 | 11.5 | 11.0 | Immunofluoresence intensity [1, 4]: 64.5; Immunofluoresence intensity [1, 7]: 57.8; Immunofluoresence intensity [1, 8]: 80.5; Immunofluoresence intensity [1, 9]: 46.8; Immunofluoresence intensity [1, 11]: 68.5
RYADRTKQI (KIF1C 340-348 peptide) | 21.5 | 45.3 | 59.0 | 7/10 | 7/10 | 7/10 | 7/10 | 14/20 | 26.0 | 14.8 | 17.5 | Recognition by IgGs in the plasma compared with the other peptides ([1]; plasma of glioma patients and healthy donors): more frequently; Total (patients with induction of peptide-reactive CTLs) [2, 14]: 3/10; IFN-γ [2, 15]: 66 pg/mL; IFN-γ [2, 16]: 16 pg/mL; IFN-γ [2, 17]: 80 pg/mL; IFN-γ [2, 18]: 65 pg/mL; IFN-γ [2, 19]: 96 pg/mL; IFN-γ [2, 20]: 52 pg/mL; IFN-γ [2, 21]: 0 pg/mL
AFIPGRPMLL (KIF21B 670-679 peptide) | – | – | – | – | – | 2/10 | 2/10 | 4/20 | – | – | – | –
RYRAENIMFL (KIF3C 702-711 peptide) | – | – | – | – | – | 2/10 | 5/10 | 7/20 | – | – | – | –
AFIPGRPML (KIF21B 670-678 peptide) | – | – | – | – | – | 2/10 | 2/10 | 4/20 | – | – | – | –
GYLIIENFI (KIF3C 629-637 peptide) | – | – | – | – | – | 0/10 | 1/10 | 1/20 | – | – | – | –
VYQIPQRRRL (KIF1C 725-734 peptide) | 19.5 | 30.5 | 52.5 | 4/10 | 5/10 | 3/10 | 5/10 | 8/20 | 19.5 | 10.0 | 9.3 | Immunofluoresence intensity [1, 22]: 99.5; Immunofluoresence intensity [1, 4]: 66.8; Immunofluoresence intensity [1, 7]: 65.5; Immunofluoresence intensity [1, 8]: 85.3; Immunofluoresence intensity [1, 9]: 61.3; Immunofluoresence intensity [1, 23]: 98.5
IYQEEIRDLL (KIF3C 147-156 peptide) | – | – | – | – | – | 0/10 | 1/10 | 1/20 | – | – | – | –
NYEETLSTL (KIF1C 331-339 peptide) | 13.5 | 16.5 | 35.0 | 0/10 | 0/10 | 0/10 | 0/10 | 0/20 | 10.5 | 8.5 | 5.5 | Immunofluoresence intensity [1, 22]: 70.0; Immunofluoresence intensity [1, 4]: 29.0; Immunofluoresence intensity [1, 24]: 40.0; Immunofluoresence intensity [1, 25]: 233.0; Immunofluoresence intensity [1, 26]: 4133.0; Immunofluoresence intensity [1, 27]: 22.5; Immunofluoresence intensity ([1]; Healthy donor 10, 1:100-diluted plasma): 62.5; Immunofluoresence intensity [1, 7]: 33.5; Immunofluoresence intensity [1, 8]: 39.5; Immunofluoresence intensity [1, 9]: 22.0; Immunofluoresence intensity [1, 23]: 53.5; Immunofluoresence intensity [1, 28]: 86.5; Immunofluoresence intensity [1, 11]: 35.5; Immunofluoresence intensity [1, 29]: 485.4
SYDESLSTL (KIF3C 347-355 peptide) | – | – | – | – | – | 0/10 | 0/10 | 0/20 | – | – | – | –
RFVPPHDCKL (KIF1C 968-977 peptide) | 23.5 | 33.0 | 58.5 | 4/10 | 5/10 | 4/10 | 5/10 | 9/20 | 27.0 | 12.5 | 19.5 | Immunofluoresence intensity [1, 22]: 117.0; Immunofluoresence intensity [1, 27]: 32.3; Immunofluoresence intensity [1, 7]: 77.0; Immunofluoresence intensity [1, 23]: 97.0; Immunofluoresence intensity [1, 11]: 74.8
IYQEEIRDL (KIF3C 147-155 peptide) | – | – | – | – | – | 0/10 | 1/10 | 1/20 | – | – | – | –
NYVPGLTPCL (KIF21B 731-740 peptide) | – | – | – | – | – | 1/10 | 1/10 | 2/20 | – | – | – | –
EYIRVRQDL (KIF3C 607-615 peptide) | – | – | – | – | – | 2/10 | 3/10 | 5/20 | – | – | – | –
KYCSHSGLVF (KIF21B 473-482 peptide) | – | – | – | – | – | 2/10 | 2/10 | 4/20 | – | – | – | –
TYGPVFMCL [EBV, reference compound] | – | – | – | – | – | – | – | – | – | – | – | Total (patients with induction of peptide-reactive CTLs) [2]: 1/10
CYEVALADF (KIF1C 756-764 peptide) | 14.0 | 20.0 | 40.3 | 0/10 | 1/10 | 0/10 | 1/10 | 1/20 | 11.5 | 6.5 | 7.5 | Immunofluoresence intensity [1, 22]: 87.3; Immunofluoresence intensity [1, 4]: 46.8; Immunofluoresence intensity [1, 24]: 47.5; Immunofluoresence intensity [1, 25]: 196.0; Immunofluoresence intensity [1, 26]: 3893.5; Immunofluoresence intensity [1, 27]: 27.0; Immunofluoresence intensity [1, 7]: 36.5; Immunofluoresence intensity [1, 8]: 45.0; Immunofluoresence intensity [1, 9]: 28.8; Immunofluoresence intensity [1, 23]: 58.0; Immunofluoresence intensity [1, 28]: 185.8; Immunofluoresence intensity [1, 11]: 40.3; Immunofluoresence intensity [1, 29]: 658.0
RFYIQMCTEL (Flu virus-derived peptide) [reference compound] | – | – | – | – | – | – | – | – | – | – | – | Total (patients with induction of peptide-reactive CTLs) [2, 14]: 3/10; IFN-γ [2, 15]: 29 pg/mL; IFN-γ [2, 16]: 0 pg/mL; IFN-γ [2, 17]: 0 pg/mL; IFN-γ [2, 18]: 95 pg/mL; IFN-γ [2, 19]: 0 pg/mL; IFN-γ [2, 20]: 0 pg/mL; IFN-γ [2, 21]: 0 pg/mL
QYLVRASYL (KIF3C 137-145 peptide) | – | – | – | – | – | 2/10 | 1/10 | 3/20 | – | – | – | –
VYIKDLSSF (KIF3C 174-182 peptide) | – | – | – | – | – | 1/10 | 2/10 | 3/20 | – | – | – | –
